Structures can show the parent of a compound that is named as a salt.
The molecules below were run against Glycogen synthase kinase-3 beta (Homo sapiens, UniProt P49841) (assay: concentration-response blocking of human GSK3B – biochemical, luminescence, cell-free homogeneous, retest, dose response (AID 434954)).
Glycogen synthase kinase-3 beta, sequence (P49841 whole entry): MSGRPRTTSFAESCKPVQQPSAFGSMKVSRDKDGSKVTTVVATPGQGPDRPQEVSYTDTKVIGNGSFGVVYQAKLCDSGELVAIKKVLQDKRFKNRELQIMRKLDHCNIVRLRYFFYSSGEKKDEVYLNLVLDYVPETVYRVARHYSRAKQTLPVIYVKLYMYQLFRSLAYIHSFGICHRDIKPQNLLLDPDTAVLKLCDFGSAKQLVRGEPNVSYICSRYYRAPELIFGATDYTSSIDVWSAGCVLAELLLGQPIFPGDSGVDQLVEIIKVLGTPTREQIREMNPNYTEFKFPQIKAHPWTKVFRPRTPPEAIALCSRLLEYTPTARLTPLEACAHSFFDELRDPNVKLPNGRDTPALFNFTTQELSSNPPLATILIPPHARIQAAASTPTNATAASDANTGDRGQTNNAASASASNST

Row | SMILES | EC50 [µM]
1 | CCCN(CCC)Cc1c(C(=O)NN=CCCc2ccccc2)nnn1-c1nonc1N [1-(4-amino-1,2,5-oxadiazol-3-yl)-5-[(dipropylamino)methyl]-N-(3-phenylpropylideneamino)-4-triazolecarboxamide] | 7.47
2 | COc1cc(C(=O)OCC(=O)NC(N)=O)cc(CN2C(=O)c3ccccc3C2=O)c1OC | > 300
3 | Clc1cccc(Nc2nc(-c3ccncc3)nc3ccccc23)c1 | 56.8
4 | Fc1ccc(Nc2nc(-c3ccncc3)nc3ccccc23)cc1 [(4-Fluoro-phenyl)-(2-pyridin-4-yl-quinazolin-4-yl)-amine] | > 300
5 | CCCCCOC(=O)C1C(C)=Nc2ncnn2C1c1cccs1 (stereo not drawn) | > 300
6 | O=C(O)CSCC(=O)NCc1c(Cl)cccc1Oc1ccccc1 | > 300
7 | Nc1nc(NCc2ccco2)nc(NCCO)c1[N+](=O)[O-] | > 300
8 | CCN(CC)Cc1c(C(=O)NN=Cc2cccc3ccccc23)nnn1-c1nonc1N [1-(4-amino-1,2,5-oxadiazol-3-yl)-5-(diethylaminomethyl)-N-(1-naphthalenylmethylideneamino)-4-triazolecarboxamide] | > 300
9 | O=C(CSCCc1ccccn1)Nc1ccc(Br)cn1 | 17.7
10 | O=C(CCC1CCN(C(=O)c2cc(C(F)(F)F)ccc2Cl)CC1)NC1CC1 [3-[1-[2-chloro-5-(trifluoromethyl)benzoyl]piperidin-4-yl]-N-cyclopropylpropanamide] | > 300
11 | CC1=C(C(=O)Nc2ccccc2F)C(c2cccs2)C2C(=O)CCCC2=N1 (stereo not drawn) | > 300
12 | O=C1NC(=O)N(Cc2ccc(F)cc2)C(=O)C1=CNCCN1CCCCC1 [MLS000040945] | > 300
13 | CCOC(=O)CNC(=O)CSc1ccc2nnc(-c3cccnc3)n2n1 [ethyl 2-[[2-[(3-pyridin-3-yl-[1,2,4]triazolo[4,3-b]pyridazin-6-yl)sulfanyl]acetyl]amino]acetate] | > 300
14 | O=C(O)COc1ccc2occ(C(=O)c3ccccc3)c2c1 | 4.3
15 | O=C(NCCCn1ccnc1)c1ccco1 | > 300
16 | c1ccc(CSc2nnc(-c3cccnc3)o2)cc1 [3-(5-Benzylsulfanyl-[1,3,4]oxadiazol-2-yl)-pyridine] | > 300
17 | COc1ccccc1-c1cc(=O)c2c(O)ccc([N+](=O)[O-])c2o1 [MLS000518626] | > 300
18 | COc1ccc(-c2cc(C(F)(F)F)nc(SCCC(=O)N3CCOCC3)n2)cc1 [3-[4-(4-methoxyphenyl)-6-(trifluoromethyl)pyrimidin-2-yl]sulfanyl-1-morpholin-4-ylpropan-1-one] | > 300
19 | Nc1nc(NCCOCCO)nc(NCc2ccccc2)c1[N+](=O)[O-] [MLS001213400] | 21.7
20 | CN1CCN(CCC2Oc3cc([N+](=O)[O-])ccc3NC2=O)CC1 (stereo not drawn) [SMR000336558] | > 300
21 | Cc1nc(Nc2ccccc2)sc1C(=O)Nc1ccccc1 | > 300
22 | CCCN(CCC)Cc1c(C(=O)NN=Cc2ccc(C)o2)nnn1-c1nonc1N [1-(4-azanyl-1,2,5-oxadiazol-3-yl)-5-[(dipropylamino)methyl]-N-[(5-methylfuran-2-yl)methylideneamino]-1,2,3-triazole-4-carboxamide] | > 300
23 | CC1(C)CC(=O)C2C(=Nc3ccccc3NC2c2ccc(F)cc2)C1 (stereo not drawn) [SMR000515995] | > 300
24 | Cc1[nH]nc2c1C(c1cccc(O)c1)C1C(=O)CC(C)(C)CC1=N2 (stereo not drawn) [MLS000081979] | 0.421
25 | CN(CCO)S(=O)(=O)c1ccc2c(c1)C(=NNC(N)=O)c1cc(S(=O)(=O)N(C)CCO)ccc1-2 [MLS000766695] | > 300
26 | Cc1ccc(Cc2cnc(NC(=O)C3CCCO3)s2)cc1 (stereo not drawn) [SMR000141246] | 17.4

Row | SMILES | EC50 [µM]
27 | COc1cccc2cc(C(=O)N(C)C)c(=O)oc12 [8-methoxy-N,N-dimethyl-2-oxo-1-benzopyran-3-carboxamide] | > 300
28 | COc1cc(NC(=O)COC(=O)CCc2cc(OC)c(OC)c(OC)c2)cc(OC)c1 [SMR000349752] | > 300
29 | CCOC(=O)CCNCC1COc2ccccc2O1 (stereo not drawn) [ethyl 3-(2,3-dihydro-1,4-benzodioxin-3-ylmethylamino)propanoate;hydrochloride] | > 300
30 | O=C1C2C3C=CC(C3)C2C(=O)N1CCCCCCN1C(=O)C2C3C=CC(C3)C2C1=O (stereo not drawn) [SMR000283963] | > 300
31 | C=CCNC(=O)c1ccc(OC)cc1OC | > 300
32 | COc1ccc(Nc2nc(N)c(C(=O)c3ccc(F)cc3)s2)cc1 [{4-amino-2-[(4-methoxyphenyl)amino]-1,3-thiazol-5-yl}(4-fluorophenyl)methanone] | 0.662
33 | Cc1nc[nH]c1C(=O)NN=Cc1c(Cl)cccc1Cl [MLS001182271] | 21.8
34 | CCCCC(=O)Nc1ncc(Br)s1 [MLS000066333] | 4.13
35 | Nc1ncnc(N2CCc3ccccc32)c1[N+](=O)[O-] [SMR000323059] | 14
36 | CC(CC(=O)NCc1ccccc1)=NNC(=O)c1cnccn1 [MLS000701004] | > 300
37 | COCCCNc1nc(N)c([N+](=O)[O-])c(NCC2CCCO2)n1 (stereo not drawn) | 3.93
38 | O=C1CN=C(c2ccccc2)c2c(sc3c2CCCC3)N1 | 27.8
39 | NC(=O)c1ncn([C@@H]2O[C@H](CO)[C@@H](O)[C@H]2O)n1 [Tribavirin] | > 300
40 | O=S(=O)(/C=C/c1ccccc1)N1CCN(Cc2ccc3c(c2)OCO3)CC1 | > 300
41 | CCOC(=O)C1C(C)=Nc2ncnn2C1c1cc(OC)ccc1OC (stereo not drawn) [MLS000112815] | > 300
42 | CCN(CC)S(=O)(=O)c1cccc(-n2cc(O)c(-c3ccccc3)c2N)c1 [SMR000368326] | > 300
43 | CCc1nnc(NC(=O)c2ccc3c(=O)n4c(nc3c2)CCCCC4)s1 [MLS001007070] | > 300
44 | CC(C)c1c(C(=O)NN=Cc2ccoc2)nnn1-c1nonc1N [MLS001139450] | > 300
45 | CCCCC(=O)Nc1cc(C)c(NC(=O)c2cccs2)cn1 [N-[4-methyl-6-(1-oxopentylamino)-3-pyridinyl]-2-thiophenecarboxamide] | > 300
46 | Cc1n[nH]c(O)c1N=Nc1ccc(S(N)(=O)=O)cc1 [4-[2-(3-methyl-5-oxopyrazol-4-yl)hydrazinyl]benzenesulfonamide] | 36.6
47 | COc1cccc(/C=C2/Sc3ccc(C(=O)NCCCN4CCCC4)cc3NC2=O)c1 | 2.82
48 | COCCn1c(SCC(=O)Nc2ccc(S(N)(=O)=O)cc2)nc2ccccc21 | > 300
49 | COc1ccc2nc3c(cc2c1)c(NC(=O)CC(C)C)nn3CC(C)C [N-[6-methoxy-1-(2-methylpropyl)-3-pyrazolo[3,4-b]quinolinyl]-3-methylbutanamide] | > 300
50 | O=C(CCS(=O)(=O)Cc1ccccc1)Nc1ncc([N+](=O)[O-])s1 [SMR000669229] | 57.1
51 | COc1cccc2cc(C(=O)OC(C)C(=O)c3ccc(C)cc3)c(=O)oc12 (stereo not drawn) | > 300
52 | CCOC(=O)CNC(=O)CSc1ccc2nnc(-c3ccc(F)cc3)n2n1 [MLS000684782] | > 300

Row | SMILES | EC50 [µM]
53 | N#CCCSc1nc(N2CCOCC2)c2c(c1C#N)CCCC2 [3-(2-cyanoethylthio)-1-(4-morpholinyl)-5,6,7,8-tetrahydroisoquinoline-4-carbonitrile] | 9.29
54 | O=C(NCc1ccncc1)C1CCC(=O)N(CCc2ccc(Cl)cc2)C1 (stereo not drawn) [MLS001100847] | > 300
55 | CCOc1ccc(NC(=O)Nc2cnccn2)cc1 [SMR000297712] | > 300
56 | CCn1c(SCC(=O)Nc2cc(Cl)ccc2OC)nnc1C1CC1 [MLS001220637] | > 300
57 | CCCCCc1cc(O)c2c(C)cc(=O)oc2c1 [5-hydroxy-4-methyl-7-pentyl-1-benzopyran-2-one] | > 300
58 | CCNc1nc(N)nc(-c2cc(Cl)ccc2OC)n1 [MLS000538218] | > 300
59 | COc1ccc(CC(=O)Nc2nc(-c3ccccc3)c(C(C)=O)s2)cc1OC [2-(3,4-dimethoxyphenyl)-N-(5-ethanoyl-4-phenyl-1,3-thiazol-2-yl)ethanamide] | 7.48
60 | O=C(Nc1ccncc1)Nc1ccncc1 [1,3-bis(4-pyridyl)urea] | > 300
61 | Cc1ccc(CNc2nc(N)c([N+](=O)[O-])c(Nc3cccc(F)c3)n2)cc1 [SMR000148340] | > 300
62 | COc1cccc2cc(C(=O)NCc3ccccc3Br)c(=O)oc12 [N-[(2-bromophenyl)methyl]-8-methoxy-2-oxo-1-benzopyran-3-carboxamide] | > 300
63 | Nc1nc(NCCCN2CCOCC2)nc(Nc2cccc(F)c2)c1[N+](=O)[O-] [SMR000436037] | 87.5
64 | CC(CC(=O)Nc1nnc(C(C)(C)C)s1)c1ccccc1 (stereo not drawn) [MLS001205585] | > 300
65 | COc1cc(C=C2SC(Nc3ccc(O)cc3)=NC2=O)cc(OC)c1OC [SMR000414809] | > 300
66 | COc1ccc(CNC(=O)CN(Cc2ccccc2)C(=O)CCC(=O)Nc2ccccn2)cc1 | 24.2
67 | COC(=O)C1=C(C)N(CCc2cc(OC)c(OC)c(OC)c2)C(=O)N[C@H]1c1ccccc1 [methyl (6S)-4-methyl-2-oxo-6-phenyl-3-[2-(3,4,5-trimethoxyphenyl)ethyl]-1,6-dihydropyrimidine-5-carboxylate] | > 300
68 | Oc1cc(-c2c[nH]c3ccccc23)c(O)n1-c1ccccc1 [MLS000121758] | > 300
69 | COc1ccccc1/C=C/C=C1\Oc2c(ccc(O)c2CN(C)C)C1=O [(2Z)-7-[(dimethylamino)methyl]-6-hydroxy-2-[(E)-3-(2-methoxyphenyl)prop-2-enylidene]-1-benzofuran-3-one] | 33.8
70 | COc1cc(CN=Nc2ccc([N+](=O)[O-])cc2)ccc1OCC(=O)Nc1ccc(C)c(C)c1 [MLS000537060] | > 300
71 | Nc1nc(Nc2ccccc2)nc(NCc2ccccc2)c1[N+](=O)[O-] | 13.3
72 | O=C(NCC(c1cccs1)N1CCOCC1)c1ccccc1NS(=O)(=O)c1ccc(Cl)cc1 (stereo not drawn) [SMR000242318] | > 300
73 | COc1ccc(CNCCC(c2ccc(F)cc2)c2ccc(OC)cc2)cc1 (stereo not drawn) [3-(4-fluorophenyl)-3-(4-methoxyphenyl)-N-[(4-methoxyphenyl)methyl]propan-1-amine] | > 300
74 | CN(CCO)c1cc(N2CCC3(CC2)OCCO3)c2nonc2c1[N+](=O)[O-] [MLS000584853] | 68
75 | O=C(Nc1ccc(O)c2c(=O)cc(-c3ccccc3Cl)oc12)c1ccccc1Cl | > 300
76 | COc1cccc(CSc2nnc(-c3ccc(F)cc3)o2)c1 [MLS000077100] | 22.5
77 | CN1CC(=O)Nc2ccc([N+](=O)[O-])cc2C1=O | > 300
78 | CN(C)S(=O)(=O)c1cc(NC(=O)COC(=O)Cc2ccc(Br)cc2)ccc1Cl [SMR000243172] | > 300
